Data reported in patent publication US20240376138A1, “Crystal Forms, Preparation Method And Application Of Aryl Phosphine Oxide Compound” (Chengdu Di'Ao Jiuhong Pharmaceutical Factory, priority 2021, published 2024).
Marks after values point to notes of the source that are not given here.

Tests used:
[1] = tested on: BaF3 EML-4-ALK-L1196M xenograft tumor; assay: Pharmacodynamic experiment in vivo, subcutaneous xenograft model; parameters: species or system BALB/c nude mouse
Method: The model used in this trial was an engineered BALB/c nude mouse subcutaneous xenograft model of BaF3 EML-4-ALK-L1196M cells. Suspension culture of engineered BaF3 cells were carried out in vitro. […] Cell passage was processed twice a week. When the number of cells reached the requirement, the cells were collected, counted, diluted into a tumor cell suspension with a concentration of 1×10^7/ml with PBS, and carried to the animal room in an ice box for direct injection and inoculation. A 1 mL syringe was used to take the above-mentioned prepared tumor cell suspension with a concentration of 1×10^7/ml, and the tumor cell suspension was injected subcutaneously into the left forelimb armpit of the dorsal side of the mouse, 0.25 mL for each inoculation site. When the average volume of tumors reached about 160 mm^3, the drug was administered for each group, 15 mice in the vehicle group and 10 mice in each of the other administration groups.
Mode and frequency of administration: oral gavage administration, the volume of administration was 10 mL/kg, and the model group was given an equal volume of vehicle. It was administered 1 time a day for 14 consecutive days.
The mental, active, eating and other general conditions of the mice were observed every day, and the body weight was measured 3 times a week, and the short diameter (a) and long diameter (b) of the tumor of each mouse were measured with vernier calipers 3 times a week, and the tumor volume was calculated according to the formula (a^2×b)/2. The relative tumor volume (RTV) was calculated from the measured calculated tumor volume, RTV=Vt/V0. Wherein V0 was the tumor volume at randomization (i.e., d0) and Vt was the tumor volume at each measurement (i.e., dn). The relative tumor proliferation rate of anti-tumor activity evaluation index was calculated according to the following formula: relative tumor proliferation rate T/C (%): […]
(Note: TRTV: RTV in the treatment group; CRTV: RTV in the model control group. According to the evaluation criteria for efficacy in the “Technical Guidelines for Non-clinical Research of Cytotoxic Antitumor Drugs” issued by the National Medical Products Administration of China, T/C %≤40% is effective).

[2] = Comparative experiment of hygroscopicity (Chinese Pharmacopoeia 2020); assay type: physicochemical; details: dihydrate
Source text: The description of hygroscopic characteristics and the definition of hygroscopic weight gain are as follows: • Deliquescence: absorbs sufficient amount of water to form a liquid; • Very hygroscopic: the weight gain by hygroscopy is not less than 15%; • Hygroscopic: the weight gain by hygroscopy is less than 15% but not less than 2%; • Slightly hygroscopic: the weight gain by hygroscopy is less than 2% but not less than 0.2%; and
Not or almost not hygroscopic: the weight gain by hygroscopy is less than 0.2% from hygroscopicity.

Solubility test = assay type: physicochemical; details: Solution with pH = 6.8, 25° C.±2° C., dihydrate
[3] = Variable temperature XRPD of crystal form 1; assay type: physicochemical
Method: The crystalline form 1 was tested on a hot-stage XRPD detection instrument to test the XRPD patterns under different temperature conditions, as shown in FIG. 8.

[4] = Vacuum drying stability test; assay type: physicochemical
[5] = Stability test 1: open solvent atmosphere, XRPD; assay type: physicochemical; details: room temperature
[6] = Stability test 3: long-term and accelerated conditions; assay type: physicochemical
[7] = High temperature and illumination stability test of crystal forms 1-3; assay type: physicochemical
Source text: The stabilities of crystal form 2 and crystal form 3 under high temperature, illumination and long-term conditions were investigated.

[8] = as above; assay type: physicochemical; details: Illumination (illuminance: 5000Lx), Day 0 (Table 18-1)
[9] = 30 mg/kg oral gavage 1 time a day, Day 3
[10] = 30 mg/kg oral gavage 1 time a day, Day 5
[11] = 30 mg/kg oral gavage 1 time a day, Day 7
[12] = 30 mg/kg oral gavage 1 time a day, Day 10
[13] = 30 mg/kg oral gavage 1 time a day, Day 12
[14] = 30 mg/kg oral gavage 1 time a day, Day 14
[15] = 30 mg/kg oral gavage once a day, D14
[16] = 40 mg/kg oral gavage 1 time a day, Day 3
[17] = 40 mg/kg oral gavage 1 time a day, Day 5
[18] = 40 mg/kg oral gavage 1 time a day, Day 7
[19] = 40 mg/kg oral gavage 1 time a day, Day 10
[20] = 40 mg/kg oral gavage 1 time a day, Day 12
[21] = 40 mg/kg oral gavage 1 time a day, Day 14
[22] = 40 mg/kg oral gavage once a day, D14
[23] = 6 months under long-term and accelerated conditions
[24] = High temperature (50° C.), Day 10, dihydrate
[25] = High temperature (50° C.), Day 30, dihydrate
[26] = Illumination (illuminance: 5000Lx), Day 10, dihydrate
[27] = Illumination (illuminance: 5000Lx), Day 30, dihydrate

## COc1cc(N2CCC(N3CCN(C)CC3)CC2)c(C)cc1Nc1ncc(Br)c(Nc2ccc(C)cc2P(C)(C)=O)n1 [Crystal form 1, (2-((5-bromo-2-((2-methoxy-5-methyl-4-(4-(4-methylpiperazin-1-yl)piperidin-1-yl)phenyl)amino)pyrimidin-4-yl)amino)-5-methylphenyl)dimethylphosphorus oxide dihydrate]
[1]; 30 mg/kg oral gavage 1 time a day, Day 0
  Tumor volume: 160 mm^3
[1]; [9]
  Relative tumor proliferation rate T/C: 28.53▴▴ %
  Tumor volume: 102 mm^3
[1]; [10]
  Relative tumor proliferation rate T/C: 16.41▴▴ %
  Tumor volume: 89 mm^3
[1]; [11]
  Relative tumor proliferation rate T/C: 8.23▴▴ %
  Tumor volume: 75 mm^3
[1]; [12]
  Relative tumor proliferation rate T/C: 6.61▴▴ %
  Tumor volume: 91 mm^3
[1]; [13]
  Relative tumor proliferation rate T/C: 6.34▴▴ %
  Tumor volume: 109 mm^3
[1]; [14]
  Relative tumor proliferation rate T/C: 4.85▴▴ %
  Tumor volume: 101 mm^3
[1]; [15]
  Tumor volume: 101 mm^3
  relative tumor proliferation rate T/C %: 4.85%
[1]; 40 mg/kg oral gavage 1 time a day, Day 0
  Tumor volume: 159 mm^3
[1]; [16]
  Relative tumor proliferation rate T/C: 23.88▴▴ %
  Tumor volume: 83 mm^3
[1]; [17]
  Relative tumor proliferation rate T/C: 10.09▴▴ %
  Tumor volume: 52 mm^3
[1]; [18]
  Relative tumor proliferation rate T/C: 5.93▴▴ %
  Tumor volume: 49 mm^3
[1]; [19]
  Relative tumor proliferation rate T/C: 4.45▴▴ %
  Tumor volume: 60 mm^3
[1]; [20]
  Relative tumor proliferation rate T/C: 3.28▴▴ %
  Tumor volume: 55 mm^3
[1]; [21]
  Relative tumor proliferation rate T/C: 2.34▴▴ %
  Tumor volume: 49 mm^3
[1]; [22]
  Tumor volume: 49 mm^3
  relative tumor proliferation rate T/C %: 2.34%
[1]; oral gavage once a day for 14 days, crystal form 1 30 and 40 mg/kg, compound 1 of WO2021073498A1 30.2 and 40.2 mg/kg
  effect on the growth of BaF3 EML-4-ALK-L1196M xenograft tumor: significantly inhibit the growth
[2]; class by weight gain after 24 h
  Hygroscopicity: Not or almost not hygroscopic (the weight gain by hygroscopy is less than 0.2% from hygroscopicity)
[2]; hygroscopicity test, 24 h
  Weight gain % after 24 h: 0.16%
Solubility test
  Solubility for 24 h: 3260 µg/mL
[3]; 50° C.
  crystal form on hot-stage XRPD: remained unchanged
[3]; 80° C. and 120° C.
  crystal form on hot-stage XRPD: lost two moles of crystal water
[4]; vacuum dried at 35° C.
  crystal form after vacuum drying: had not been transformed
[4]; vacuum drying at 35° C. for 24 h
  moisture content after vacuum drying: 5.26%
[5]; Acetone atmosphere
  Analysis of result (XRPD) Day 4: Crystal form 1
  Analysis of result (XRPD) Day 6: Crystal form 1
[5]; Ethanol atmosphere
  Analysis of result (XRPD) Day 4: Crystal form 1
  Analysis of result (XRPD) Day 6: Crystal form 1
[5]; Ethyl acetate atmosphere
  Analysis of result (XRPD) Day 4: Crystal form 1
  Analysis of result (XRPD) Day 6: Crystal form 1
[5]; Tetrahydrofuran atmosphere
  Analysis of result (XRPD) Day 4: Crystal form 1
  Analysis of result (XRPD) Day 6: Crystal form 1
[6]; [23]
  maximum single impurity: ≤ 0.07%
  total impurities after 6 months of placement compared with Day 0: had not increased
[6]; Acceleration (40° C. ± 2° C., 75% RH ± 10% RH), Day 0
  Traits: off-white
[6]; Acceleration (40° C. ± 2° C., 75% RH ± 10% RH), Month 6
  Traits: off-white
[6]; Acceleration (40° C. ± 2° C., 75% RH ± 10% RH, exposed to air and away from light), Day 0
  Crystal form (XRPD): form 1
[6]; Acceleration (40° C. ± 2° C., 75% RH ± 10% RH, exposed to air and away from light), Day 10
  Crystal form (XRPD): form 1
[6]; Acceleration (40° C. ± 2° C., 75% RH ± 10% RH, exposed to air and away from light), Month 6
  Crystal form (XRPD): form 1
[6]; Long-term (25° C. ± 2° C., 65% RH ± 10% RH), Day 0, dihydrate
  Traits: off-white
[6]; Long-term (25° C. ± 2° C., 65% RH ± 10% RH), Month 6
  Traits: off-white
[6]; Long-term (25° C. ± 2° C., 65% RH ± 10% RH, exposed to air and away from light), Day 0
  Crystal form (XRPD): form 1
[6]; Long-term (25° C. ± 2° C., 65% RH ± 10% RH, exposed to air and away from light), Day 10
  Crystal form (XRPD): form 1
[6]; Long-term (25° C. ± 2° C., 65% RH ± 10% RH, exposed to air and away from light), Month 6
  Crystal form (XRPD): form 1
[7]; Day 0, dihydrate
  Traits: off-white
  purity: purity: 99.66%
  total impurities: impurities: 0.34%
[7]; Day 0, reporting limit per ICHQ3B
  the number of impurities above the reporting limit: limit is 4 total
[7]; [24]
  Traits: off-white
  purity: purity: 99.65%;
  the number of impurities above the reporting limit: limit is 5; total
  total impurities: impurities: 0.35%
[7]; [25]
  Traits: off-white
  purity: purity: 99.53%;
  the number of impurities above the reporting limit: limit is 6; total
  total impurities: impurities: 0.47%
[7]; Illumination (illuminance: 5000Lx), Day 10 (Table 18-1), dihydrate
  Traits: off-white
[7]; [26]
  Traits: off-white
  purity: purity: 99.65%;
  the number of impurities above the reporting limit: limit is 5; total
  total impurities: impurities: 0.35%
[7]; [27]
  Traits: off-white
  purity: purity: 99.60%;
  the number of impurities above the reporting limit: limit is 6; total
  total impurities: impurities: 0.40%
[8]
  Traits: off-white
